Experimental data: ChEMBL document CHEMBL1135462, “Novel selective phosphodiesterase (PDE4) inhibitors. 4. Resolution, absolute configuration, and PDE4 inhibitory activity of cis-tetra- and cis-hexahydrophthalazinones” (J Med Chem, 2002)

Assays:
Phosphodiesterase 4 = Phosphodiesterase 4 (Homo sapiens, UniProt P27815+Q08499+Q07343+Q08493); test: Inhibitory activity against phosphodiesterase 4 carried out in the cytosol of human neutrophils; assay type: protein assay
Mus musculus = test: Percent inhibition of arachidonic acid induced mouse ear edema after 30 uM/kg peroral pretreatment; assay type: functional

| Structure (SMILES) | Log IC50 (Phosphodiesterase 4) | Inhibition (Mus musculus) [%] |
| --- | --- | --- |
| COc1ccc(C2=NNC(=O)[C@H]3CCCC[C@@H]23)cc1OC1CCCC1 | -5.8 | – |
| COc1ccc(C2=NNC(=O)C3CCCCC23)cc1OC (centres undefined) | -6.4 | – |
| COc1ccc(C2=NNC(=O)C3CCCCC23)cc1OC1CCCC1 (centres undefined) | -6.8 | – |
| COc1ccc(C2=NNC(=O)[C@@H]3CCCC[C@H]23)c2c1OC1(CCCC1)C2 | -7.8 | – |
| COc1ccc(C2=NNC(=O)[C@H]3CC=CC[C@@H]23)c2c1OC1(CCCC1)C2 | -6.6 | – |
| CCOc1ccc(C2=NN(c3ccc(C(=O)O)cc3)C(=O)[C@@H]3CC=CC[C@H]23)cc1OCC | -8.3 | 47 |
| COc1ccc(C2=NN(C3C4CC5CC(C4)CC3C5)C(=O)C3CC=CCC23)cc1OC (racemic) | -9.2 | 51 |
| COc1ccc(C2=NNC(=O)[C@@H]3CCCC[C@H]23)cc1OC (relative stereo) | -6.9 | – |
| CCOC(=O)c1ccc(N2N=C(c3ccc(OCC)c(OCC)c3)C3CC=CCC3C2=O)cc1 (racemic) | -8 | – |
| COc1ccc([C@]2(C#N)CC[C@@H](C(=O)O)CC2)cc1OC1CCCC1 [CILOMILAST] | – | 33 |
| CCOc1ccc(C2=NN(c3ccc(C(=O)O)cc3)C(=O)C3CC=CCC23)cc1OCC (racemic) | -7.7 | 48 |
| COc1ccc(C2=NNC(=O)[C@H]3CC=CC[C@@H]23)cc1OC | -6.1 | – |
| CCOC(=O)c1ccc(N2N=C(c3ccc(OCC)c(OCC)c3)[C@H]3CC=CC[C@H]3C2=O)cc1 | -8.2 | 27 |
| COc1ccc([C@H](Cc2ccncc2)c2ccccc2)cc1OC1CCCC1 [CDP840] | -7.7 | 48 |
| COc1ccc(C2=NN(C3C4CC5CC(C4)CC3C5)C(=O)[C@@H]3CC=CC[C@H]23)cc1OC (single isomer, unassigned; (+)) | -9.3 | 49 |
| COc1ccc(C2=NNC(=O)[C@H]3CC=CC[C@@H]23)cc1OC1CCCC1 | -6.7 | – |
| COc1ccc(C2=NNC(=O)[C@@H]3CCCC[C@H]23)cc1OC1CCCC1 (relative stereo) | -7.1 | – |
| COc1ccc(C2=NNC(=O)[C@@H]3CC=CC[C@H]23)cc1OC (relative stereo) | -7.3 | – |
| COc1ccc(C2=NNC(=O)C3CC=CCC23)cc1OC1CCCC1 (centres undefined) | -7.1 | – |
| COc1ccc(C2=NNC(=O)C3CC=CCC23)cc1OC (racemic) | -7 | – |
| COc1ccc(C2=NNC(=O)C3CC=CCC23)c2c1OC1(CCCC1)C2 (racemic) | -8 | – |
| COc1ccc(C2=NNC(=O)[C@@H]3CC=CC[C@H]23)cc1OC1CCCC1 (relative stereo) | -7.4 | – |
| COc1ccc(C2=NNC(=O)[C@H]3CCCC[C@@H]23)cc1OC | -5.1 | – |
| COc1ccc(C2CNC(=O)C2)cc1OC1CCCC1 (single isomer, unassigned; (-)) [ROLIPRAM] | – | 55 |
| COc1ccc(C2=NNC(=O)[C@@H]3CC=CC[C@H]23)c2c1OC1(CCCC1)C2 | -8.5 | – |
| COc1ccc(C2=NNC(=O)[C@H]3CCCC[C@@H]23)c2c1OC1(CCCC1)C2 | -5.6 | – |
| COc1ccc(C2=NN(C3C4CC5CC(C4)CC3C5)C(=O)[C@H]3CC=CC[C@@H]23)cc1OC (single isomer, unassigned; (-)) | -6.9 | – |
| COc1ccc(C2=NNC(=O)C3CCCCC23)c2c1OC1(CCCC1)C2 (racemic) | -7.3 | – |
